Test results published in patent US11214594B2, “Antimicrobial peptide having synergistic antibacterial effect with antibiotics on multidrug resistant bacteria, and use thereof” (priority 2016, dated 2022).
Converted amounts (≈) assume the structure as drawn. Like-named read-outs stand apart in the source and are kept apart here. Where a SMILES comes first, the peptide text is derived from it.

Key:
MDRST 8007 = experiment: Minimal inhibitory concentration (MIC), single agent; format: cell-based, Salmonella typhimurium; settings: agent alone
Outline: (§1)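 MIC read-out = lowest peptide level with no bacterial proliferation. Strains diluted in MH medium to 2×10^6 CFU; peptide twofold serial dilutions in MH added 1:1 in microtiter wells.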

B. subtilis = experiment: microbe, parasite or virus in culture; format: cell-based, Bacillus subtilis
Outline: as §1

MDRPA 2003 = format: cell-based, Pseudomonas aeruginosa
Outline: as §1

MDRPA 2002 = format: cell-based, Pseudomonas aeruginosa
Outline: as §1

MDREC 1238 = format: cell-based, Escherichia coli
Outline: as §1

A. baumannii = experiment: MIC of antimicrobial peptide during combined treatment with antibiotic; format: cell-based, Acinetobacter baumannii
Outline: (§2)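 Broth microdilution in MH medium; strains were diluted to 2×10^6 CFU per ml before plating. Peptide was serially diluted stepwise at 2:1 starting from its MIC, and MH-diluted antibiotic was then added to determine MIC. The reversed arrangement was also tested.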

MDRAB 12035 [1] = experiment: as above; format: cell-based, Acinetobacter baumannii
Outline: as §2

MDRAB 12035 [2] = experiment: MIC of antibiotic during combined treatment with antimicrobial peptide; format: cell-based, Acinetobacter baumannii
Outline: as §2

P. aeruginosa = experiment: microbe, parasite or virus in culture; format: cell-based, Pseudomonas aeruginosa
Outline: as §1

E. coli [3] = experiment: MIC of antibiotic during combined treatment with antimicrobial peptide; format: cell-based, Escherichia coli; settings: for Antibiotic MIC, Erythromycin / Antibiotic MIC, Linezolid / Antibiotic MIC, Vancomycin: E. coli
Outline: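 First, antibiotic solution is diluted with MH medium; next, the dilution is dispensed into wells containing peptide; finally, the orientation is swapped and MIC of each mixture determined.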

MDRAB 12036 = format: cell-based, Acinetobacter baumannii
Outline: as §1

MRSA 3114 = format: cell-based, Staphylococcus aureus; settings: 3114
Outline: as §1

MRSA 3126 = format: cell-based, Staphylococcus aureus; settings: 3126
Outline: as §1

E. coli [4] = format: cell-based, Escherichia coli; settings: E. coli
Outline: as §2

MDREC 1229 [5] = format: cell-based, Escherichia coli
Outline: as §2

MDRST 8009 = format: cell-based, Salmonella typhimurium; settings: agent alone
Outline: as §1

S. epidermidis = experiment: microbe, parasite or virus in culture; format: cell-based, Staphylococcus epidermidis
Outline: as §1

E. coli [6] = experiment: microbe, parasite or virus in culture; format: cell-based, Escherichia coli; settings: 16 h
Outline: as §1

MDREC 1229 [7] = experiment: microbe, parasite or virus in culture; format: cell-based, Escherichia coli
Outline: as §1

[8] = erythromycin 4 μg/ml (Conc./MIC 1/8)
[9] = erythromycin 8 μg/ml (Conc./MIC 1/4)
[10] = erythromycin 16 μg/ml (Conc./MIC 1/2)
[11] = erythromycin 32 μg/ml (Conc./MIC 1)
[12] = vancomycin 512 μg/ml (Conc./MIC 1/2)
[13] = vancomycin 1024 μg/ml (Conc./MIC 1)
[14] = peptide treatment concentration 1 μg/ml
[15] = peptide treatment concentration 2 μg/ml
[16] = peptide treatment concentration 4 μg/ml
[17] = peptide treatment concentration 6 μg/ml
[18] = peptide treatment concentration 8 μg/ml
[19] = peptide treatment concentration 16 μg/ml
[20] = peptide treatment concentration 32 μg/ml
[21] = peptide treatment concentration 64 μg/ml
[22] = with Erythromycin […] (Conc./MIC 1)

CC[C@H](C)[C@H](NC(=O)[C@H](CCCCN)NC(=O)[C@H](Cc1c[nH]c2ccccc12)NC(=O)[C@@H](N)CCCNC(=N)N)C(=O)N[C@@H](Cc1ccccc1)C(=O)N[C@@H](CCCCN)C(=O)N[C@@H](CCCCN)C(=O)N[C@H](C(=O)N1CCC[C@H]1C(=O)N[C@@H](CCCCN)C(=O)N[C@@H](Cc1ccccc1)C(=O)N[C@@H](CC(C)C)C(=O)N[C@@H](Cc1c[nH]cn1)C(=O)N[C@@H](CO)C(=O)N[C@@H](Cc1ccccc1)C(=O)N[C@@H](CCCCN)C(=O)N[C@@H](CCCCN)C(=O)N[C@@H](Cc1ccccc1)C(N)=O)[C@@H](C)CC [PapMA-5, RWK IFK KIP KFL HSF KKF-NH2] (H-RWKIFKKIPKFLHSFKKF-NH2; N-terminus assumed)
Minimal inhibitory concentration MIC (MDRST 8007): 64 µg/mL (≈ 26.9 µM) | Minimal inhibitory concentration MIC (B. subtilis): >128 µg/mL | Minimal inhibitory concentration MIC (MDRPA 2003): 16 µg/mL (≈ 6.73 µM) | Minimal inhibitory concentration MIC (MDRPA 2002): 16 µg/mL (≈ 6.73 µM) | Minimal inhibitory concentration MIC (MDREC 1238): 64 µg/mL (≈ 26.9 µM) | Peptide MIC during treatment with antibiotic (A. baumannii; [8]): 8 µg/mL | Peptide MIC during treatment with antibiotic (A. baumannii; [9]): 4 µg/mL | Peptide MIC during treatment with antibiotic (A. baumannii; [10]): 2 µg/mL | Peptide MIC during treatment with antibiotic (A. baumannii; [11]): 0 µg/mL | Peptide MIC during treatment with antibiotic (A. baumannii; linezolid 32 μg/ml (Conc./MIC 1/8)): 4 µg/mL | Peptide MIC during treatment with antibiotic (A. baumannii; linezolid 64 μg/ml (Conc./MIC 1/4)): 2 µg/mL | Peptide MIC during treatment with antibiotic (A. baumannii; linezolid […] (Conc./MIC 1)): 0 µg/mL | Peptide MIC during treatment with antibiotic (A. baumannii; linezolid […] (Conc./MIC 1/2)): 1 µg/mL | Peptide MIC during treatment with antibiotic (A. baumannii; [12]): 0.5 µg/mL | Peptide MIC during treatment with antibiotic (A. baumannii; [13]): 0 µg/mL | Peptide MIC during treatment with antibiotic (A. baumannii; vancomycin […] (Conc./MIC 1/4)): 1 µg/mL | Peptide MIC during treatment with antibiotic (A. baumannii; vancomycin […] (Conc./MIC 1/8)): 4 µg/mL | Peptide MIC during treatment with erythromycin (MDRAB 12035 [1]; [8]): 4 µg/mL | Peptide MIC during treatment with erythromycin (MDRAB 12035 [1]; [9]): 4 µg/mL | Peptide MIC during treatment with erythromycin (MDRAB 12035 [1]; [10]): 4 µg/mL | Peptide MIC during treatment with erythromycin (MDRAB 12035 [1]; [11]): 0 µg/mL | Peptide MIC during treatment with linezolid (MDRAB 12035 [1]; linezolid 64 μg/ml (Conc./MIC 1/8)): 4 µg/mL | Peptide MIC during treatment with linezolid (MDRAB 12035 [1]; linezolid 512 μg/ml (Conc./MIC 1)): 0 µg/mL | Peptide MIC during treatment with linezolid (MDRAB 12035 [1]; linezolid […] (Conc./MIC 1/2)): 1 µg/mL | Peptide MIC during treatment with linezolid (MDRAB 12035 [1]; linezolid […] (Conc./MIC 1/4)): 4 µg/mL | Peptide MIC during treatment with vancomycin (MDRAB 12035 [1]; [12]): 2 µg/mL | Peptide MIC during treatment with vancomycin (MDRAB 12035 [1]; [13]): 1 µg/mL | Peptide MIC during treatment with vancomycin (MDRAB 12035 [1]; vancomycin […] (Conc./MIC 1/4)): 4 µg/mL | Peptide MIC during treatment with vancomycin (MDRAB 12035 [1]; vancomycin […] (Conc./MIC 1/8)): 4 µg/mL | Erythromycin MIC during combined treatment with peptide (MDRAB 12035 [2]; [14]): 32 µg/mL | Linezolid MIC during combined treatment with peptide (MDRAB 12035 [2]; [14]): >128 µg/mL | Vancomycin MIC during combined treatment with peptide (MDRAB 12035 [2]; [14]): >128 µg/mL | Erythromycin MIC during combined treatment with peptide (MDRAB 12035 [2]; [15]): 32 µg/mL | Linezolid MIC during combined treatment with peptide (MDRAB 12035 [2]; [15]): 128 µg/mL | Vancomycin MIC during combined treatment with peptide (MDRAB 12035 [2]; [15]): >128 µg/mL | Erythromycin MIC during combined treatment with peptide (MDRAB 12035 [2]; [16]): 16 µg/mL | Linezolid MIC during combined treatment with peptide (MDRAB 12035 [2]; [16]): 64 µg/mL | Vancomycin MIC during combined treatment with peptide (MDRAB 12035 [2]; [16]): 128 µg/mL | Erythromycin MIC during combined treatment with peptide (MDRAB 12035 [2]; [17]): 2 µg/mL | Linezolid MIC during combined treatment with peptide (MDRAB 12035 [2]; [17]): 16 µg/mL | Vancomycin MIC during combined treatment with peptide (MDRAB 12035 [2]; [17]): 32 µg/mL | Erythromycin MIC during combined treatment with peptide (MDRAB 12035 [2]; [18]): 1 µg/mL | Linezolid MIC during combined treatment with peptide (MDRAB 12035 [2]; [18]): 8 µg/mL | Vancomycin MIC during combined treatment with peptide (MDRAB 12035 [2]; [18]): 16 µg/mL | Erythromycin MIC during combined treatment with peptide (MDRAB 12035 [2]; [19]): 0.25 µg/mL | Linezolid MIC during combined treatment with peptide (MDRAB 12035 [2]; [19]): 8 µg/mL | Vancomycin MIC during combined treatment with peptide (MDRAB 12035 [2]; [19]): 8 µg/mL | Erythromycin MIC during combined treatment with peptide (MDRAB 12035 [2]; [20]): 0.125 µg/mL | Linezolid MIC during combined treatment with peptide (MDRAB 12035 [2]; [20]): 4 µg/mL | Vancomycin MIC during combined treatment with peptide (MDRAB 12035 [2]; [20]): 4 µg/mL | Erythromycin MIC during combined treatment with peptide (MDRAB 12035 [2]; [21]): 0 µg/mL | Linezolid MIC during combined treatment with peptide (MDRAB 12035 [2]; [21]): 0 µg/mL | Vancomycin MIC during combined treatment with peptide (MDRAB 12035 [2]; [21]): 0 µg/mL | Minimal inhibitory concentration MIC (P. aeruginosa): 16 µg/mL (≈ 6.73 µM) | Synergistic effect of antibacterial activity with existing antibiotics compared with PapMA-1 (E. coli [3]; E. coli and MDREC1229): level similar to that of the PapMA-1 peptide | Antibiotic MIC, Erythromycin (E. coli [3]; erythromycin combined with peptide at 1 μg/ml): 128 µg/mL | Antibiotic MIC, Erythromycin (E. coli [3]; erythromycin combined with peptide at 2 μg/ml): 64 µg/mL | Antibiotic MIC, Erythromycin (E. coli [3]; erythromycin combined with peptide at 4 μg/ml): 32 µg/mL | Antibiotic MIC, Erythromycin (E. coli [3]; erythromycin combined with peptide at 6 μg/ml): 8 µg/mL | Antibiotic MIC, Erythromycin (E. coli [3]; erythromycin combined with peptide at 8 μg/ml): 2 µg/mL | Antibiotic MIC, Erythromycin (E. coli [3]; erythromycin combined with peptide at 16 μg/ml): 0.5 µg/mL | Antibiotic MIC, Erythromycin (E. coli [3]; erythromycin combined with peptide at 32 μg/ml): 0.5 µg/mL | Antibiotic MIC, Erythromycin (E. coli [3]; erythromycin combined with peptide at 64 μg/ml): 0 µg/mL | Antibiotic MIC, Linezolid (E. coli [3]; linezolid combined with peptide at 1 μg/ml): >128 µg/mL | Antibiotic MIC, Linezolid (E. coli [3]; linezolid combined with peptide at 2 μg/ml): 128 µg/mL | Antibiotic MIC, Linezolid (E. coli [3]; linezolid combined with peptide at 4 μg/ml): 64 µg/mL | Antibiotic MIC, Linezolid (E. coli [3]; linezolid combined with peptide at 6 μg/ml): 32 µg/mL | Antibiotic MIC, Linezolid (E. coli [3]; linezolid combined with peptide at 8 μg/ml): 16 µg/mL | Antibiotic MIC, Linezolid (E. coli [3]; linezolid combined with peptide at 16 μg/ml): 8 µg/mL | Antibiotic MIC, Linezolid (E. coli [3]; linezolid combined with peptide at 32 μg/ml): 2 µg/mL | Antibiotic MIC, Linezolid (E. coli [3]; linezolid combined with peptide at 64 μg/ml): 0 µg/mL | Antibiotic MIC, Vancomycin (E. coli [3]; vancomycin combined with peptide at 1 μg/ml): >128 µg/mL | Antibiotic MIC, Vancomycin (E. coli [3]; vancomycin combined with peptide at 2 μg/ml): >128 µg/mL | Antibiotic MIC, Vancomycin (E. coli [3]; vancomycin combined with peptide at 4 μg/ml): 128 µg/mL | Antibiotic MIC, Vancomycin (E. coli [3]; vancomycin combined with peptide at 6 μg/ml): 64 µg/mL | Antibiotic MIC, Vancomycin (E. coli [3]; vancomycin combined with peptide at 8 μg/ml): 32 µg/mL | Antibiotic MIC, Vancomycin (E. coli [3]; vancomycin combined with peptide at 16 μg/ml): 8 µg/mL | Antibiotic MIC, Vancomycin (E. coli [3]; vancomycin combined with peptide at 32 μg/ml): 2 µg/mL | Antibiotic MIC, Vancomycin (E. coli [3]; vancomycin combined with peptide at 64 μg/ml): 0 µg/mL | Minimal inhibitory concentration MIC (MDRAB 12036): 64 µg/mL (≈ 26.9 µM) | Minimal inhibitory concentration MIC (MRSA 3114): >128 µg/mL | Minimal inhibitory concentration MIC (MRSA 3126): >128 µg/mL | Peptide MIC (E. coli [4]; [22]): 0 µg/mL | Peptide MIC (E. coli [4]; with Linezolid […] (Conc./MIC 1)): 0 µg/mL | Peptide MIC (E. coli [4]; with Vancomycin 1024 μg/ml (Conc./MIC 1)): 0 µg/mL | Peptide MIC (MDREC 1229 [5]; [22]): 0 µg/mL | Peptide MIC (MDREC 1229 [5]; with Linezolid 512 μg/ml (Conc./MIC 1)): 0 µg/mL | Minimal inhibitory concentration MIC (MDRST 8009): 64 µg/mL (≈ 26.9 µM) | Minimal inhibitory concentration MIC (S. epidermidis): >128 µg/mL | Minimal inhibitory concentration MIC (E. coli [6]): 64 µg/mL (≈ 26.9 µM) | Minimal inhibitory concentration MIC (MDREC 1229 [7]): 64 µg/mL (≈ 26.9 µM)
